Patent US20210045385A1, “PYRIDAZINONE-SUBSTITUTED KETOXIMES AS HERBICIDES” (FMC Corporation, priority 2018, published 2021)

Legend:
Format in all cases: in vivo
[1] = system: Italian ryegrass (Lolium multiflorum); assay: Test A preemergence, visual plant response rating
Summary of the method: (§1)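 Compared with untreated controls, treated plants received a visual injury score on a 0–100 scale around 10 days after application. The compound, in a non-phytotoxic solvent with surfactant, was given as a preemergence soil spray or postemergence at the one- to two-leaf stage.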

[2] = system: barnyardgrass (Echinochloa crus-galli); assay: Test A preemergence, visual plant response rating
Summary of the method: as §1

[3] = system: foxtail, green (green foxtail, Setaria viridis); assay: Test A preemergence, visual plant response rating
Summary of the method: as §1

kochia (Kochia scoparia) [4] = assay: Test A preemergence, visual plant response rating
Summary of the method: as §1

[5] = system: pigweed (Amaranthus retroflexus); assay: Test A preemergence, visual plant response rating
Summary of the method: as §1

[6] = system: ragweed (common ragweed, Ambrosia elatior); assay: Test A preemergence, visual plant response rating
Summary of the method: as §1

[7] = system: Italian ryegrass (Lolium multiflorum); assay: Test A postemergence, visual plant response rating
Summary of the method: as §1

[8] = system: barnyardgrass (Echinochloa crus-galli); assay: Test A postemergence, visual plant response rating
Summary of the method: as §1

[9] = system: blackgrass (Alopecurus myosuroides); assay: Test A postemergence, visual plant response rating
Summary of the method: as §1

corn (Zea mays) [10] = assay: Test A postemergence, visual plant response rating
Summary of the method: as §1

[11] = system: foxtail, green (green foxtail, Setaria viridis); assay: Test A postemergence, visual plant response rating
Summary of the method: as §1

[12] = system: galium (catchweed bedstraw, Galium aparine); assay: Test A postemergence, visual plant response rating
Summary of the method: as §1

kochia (Kochia scoparia) [13] = assay: Test A postemergence, visual plant response rating
Summary of the method: as §1

[14] = system: pigweed (Amaranthus retroflexus); assay: Test A postemergence, visual plant response rating
Summary of the method: as §1

[15] = system: ragweed (common ragweed, Ambrosia elatior); assay: Test A postemergence, visual plant response rating
Summary of the method: as §1

[16] = system: wheat (Triticum aestivum); assay: Test A postemergence, visual plant response rating; conditions: Postemergence
Summary of the method: as §1

[17] = system: barnyardgrass (Echinochloa crus-galli); assay: Test B flooded paddy test, visual plant response rating; conditions: 250 g ai/ha, Flood, applied to paddy water, 2-leaf stage, evaluated after 13 to 15 days
Summary of the method: (§2)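 Seedlings at 2 leaves; compound into paddy water (3 cm flood, maintained); 13–15 d greenhouse; visual score relative to controls.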

[18] = system: ducksalad (Heteranhera limosa); assay: as above; conditions: 250 g ai/ha, Flood, applied to paddy water, 2-leaf stage, evaluated after 13 to 15 days
Summary of the method: as §2

rice (Oryza sativa) = assay: as above; conditions: 250 g ai/ha, Flood, applied to paddy water, 2-leaf stage, evaluated after 13 to 15 days
Summary of the method: as §2

[19] = system: sedge, umbrella (small-flower umbrella sedge, Cyperus difformis); assay: as above; conditions: 250 g ai/ha, Flood, applied to paddy water, 2-leaf stage, evaluated after 13 to 15 days
Summary of the method: as §2

[20] = system: Italian ryegrass (Lolium mutiflorum); assay: Test C preemergence, visual plant response rating; conditions: 500 g ai/ha
Summary of the method: (§3)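 Visual injury on a 0 (no effect) to 100 (complete control) scale versus untreated controls, scored approximately 10 d after treatment under greenhouse conditions. Treatments used surfactant-containing non-phytotoxic solvent formulations, sprayed onto loam–sand soil preemergence or onto one- to two-leaf plants 2–10 cm tall postemergence.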

[21] = system: barnyardgrass (Echinochloa crus-galli); assay: Test C preemergence, visual plant response rating; conditions: 500 g ai/ha
Summary of the method: as §3

[22] = system: foxtail, green (green foxtail, Setaria viridis); assay: Test C preemergence, visual plant response rating; conditions: 500 g ai/ha
Summary of the method: as §3

kochia (Bassia scoparia) [23] = assay: Test C preemergence, visual plant response rating; conditions: 500 g ai/ha
Summary of the method: as §3

[24] = system: pigweed (Amaranthus retroflexus); assay: Test C preemergence, visual plant response rating; conditions: 500 g ai/ha
Summary of the method: as §3

[25] = system: ragweed (common ragweed, Ambrosia artemisiifolia); assay: Test C preemergence, visual plant response rating; conditions: 500 g ai/ha
Summary of the method: as §3

[26] = system: Italian ryegrass (Lolium mutiflorum); assay: Test C postemergence, visual plant response rating; conditions: Test C, postemergence, 500 g ai/ha
Summary of the method: as §3

[27] = system: barnyardgrass (Echinochloa crus-galli); assay: Test C postemergence, visual plant response rating; conditions: Test C, postemergence, 500 g ai/ha
Summary of the method: as §3

[28] = system: blackgrass (Alopecurus myosuroides); assay: Test C postemergence, visual plant response rating; conditions: Test C, postemergence, 500 g ai/ha
Summary of the method: as §3

corn (Zea mays) [29] = assay: Test C postemergence, visual plant response rating; conditions: Test C, postemergence, 500 g ai/ha
Summary of the method: as §3

[30] = system: foxtail, green (green foxtail, Setaria viridis); assay: Test C postemergence, visual plant response rating; conditions: 500 g ai/ha
Summary of the method: as §3

kochia (Bassia scoparia) [31] = assay: Test C postemergence, visual plant response rating; conditions: Test C, postemergence, 500 g ai/ha
Summary of the method: as §3

[32] = system: pigweed (Amaranthus retroflexus); assay: Test C postemergence, visual plant response rating; conditions: Test C, postemergence, 500 g ai/ha
Summary of the method: as §3

[33] = system: ragweed (common ragweed, Ambrosia artemisiifolia); assay: Test C postemergence, visual plant response rating; conditions: Test C, postemergence, 500 g ai/ha
Summary of the method: as §3

[34] = system: wheat (Triticum aestivum); assay: Test C postemergence, visual plant response rating; conditions: Test C, postemergence, 500 g ai/ha
Summary of the method: as §3

[35] = 125 g ai/ha, preemergence, 0 to 100 scale, 0 no effect, 100 complete control
[36] = 500 g ai/ha Preemergence, approx. 10 days
[37] = 500 g ai/ha, postemergence, 0 is no effect, 100 is complete control
[38] = Postemergence, 125 g ai/ha, 0 to 100 scale (0 no effect, 100 complete control)

CO/N=C(\c1cccc(S(C)(=O)=O)c1)c1c(O)c(C)nn(C)c1=O [Compound 148]
Ryegrass, Italian plant response rating [1, 35]: 0 | Ryegrass, Italian plant response rating (0 to 100 scale) [1, 36]: 0 | Barnyardgrass plant response rating [2, 35]: 0 | Barnyardgrass plant response rating (0 to 100 scale) [2, 36]: 0 | Foxtail, Green plant response rating [3, 35]: 0 | Foxtail, Green plant response rating (0 to 100 scale) [3, 36]: 0 | Kochia plant response rating (kochia (Kochia scoparia) [4]; [35]): 0 | Kochia plant response rating (0 to 100 scale) (kochia (Kochia scoparia) [4]; [36]): 0 | Pigweed plant response rating [5, 35]: 0 | Pigweed plant response rating (0 to 100 scale) [5, 36]: 0 | Ragweed plant response rating [6, 35]: 0 | Ragweed plant response rating (0 to 100 scale) [6, 36]: 0 | Ryegrass, Italian plant response rating (0 to 100 scale) [7, 37]: 0 | Ryegrass, Italian plant response rating (0 to 100 scale) ([7]; Postemergence, rate not given, approx. 10 days): 0 | Barnyardgrass plant response rating (0 to 100 scale) [8, 37]: 0 | Barnyardgrass plant response rating [8, 38]: 0 | Blackgrass plant response rating (0 to 100 scale) [9, 37]: 0 | Blackgrass plant response rating [9, 38]: 0 | Corn plant response rating (0 to 100 scale) (corn (Zea mays) [10]; [37]): 0 | Corn plant response rating (corn (Zea mays) [10]; [38]): 0 | Foxtail, Green plant response rating (0 to 100 scale) [11, 37]: 0 | Foxtail, Green plant response rating [11, 38]: 0 | Galium plant response rating (0 to 100 scale) [12, 37]: 0 | Galium plant response rating [12, 38]: 0 | Kochia plant response rating (0 to 100 scale) (kochia (Kochia scoparia) [13]; [37]): 0 | Kochia plant response rating (kochia (Kochia scoparia) [13]; [38]): 0 | Pigweed plant response rating (0 to 100 scale) [14, 37]: 0 | Pigweed plant response rating [14, 38]: 0 | Ragweed plant response rating (0 to 100 scale) [15, 37]: 0 | Ragweed plant response rating [15, 38]: 0 | Wheat plant response rating ([16]; 500 g ai/ha, 0 to 100 scale (0 no effect, 100 complete control)): 0 | Wheat plant response rating (0 to 100 scale) ([16]; approx. 10 days): 0 | Plant response rating, Barnyardgrass (0 to 100 scale, 0 is no effect, 100 is complete control) [17]: 0 | Plant response rating, Ducksalad (0 to 100 scale, 0 is no effect, 100 is complete control) [18]: 0 | Plant response rating, Rice (0 to 100 scale, 0 is no effect, 100 is complete control) (rice (Oryza sativa)): 0 | Plant response rating, Sedge, Umbrella (0 to 100 scale, 0 is no effect, 100 is complete control) [19]: 0

Cc1nn(C)c(=O)c(/C(=N/OCc2ccccc2)c2cccc(Cl)c2)c1O [Compound 150]
Ryegrass, Italian plant response rating (0 to 100 scale) [20]: 0 | Barnyardgrass plant response rating (0 to 100 scale) [21]: 0 | Foxtail, Green plant response rating (0 to 100 scale) [22]: 0 | Kochia plant response rating (0 to 100 scale) (kochia (Bassia scoparia) [23]): 0 | Pigweed plant response rating (0 to 100 scale) [24]: 0 | Ragweed plant response rating (0 to 100 scale) [25]: 80 | Ryegrass, Italian plant response rating (0 to 100 scale) [26]: 10 | Barnyardgrass plant response rating (0 to 100 scale) [27]: 0 | Blackgrass plant response rating (0 to 100 scale) [28]: 0 | Corn plant response rating (0 to 100 scale) (corn (Zea mays) [29]): 0 | Foxtail, Green plant response rating (0 to 100 scale) [30]: 0 | Kochia plant response rating (0 to 100 scale) (kochia (Bassia scoparia) [31]): 0 | Pigweed plant response rating (0 to 100 scale) [32]: 0 | Ragweed plant response rating (0 to 100 scale) [33]: 20 | Wheat plant response rating (0 to 100 scale) [34]: 0
